Patent US9890152B2 (Genentech, Inc., priority 2012, dated 2018)

Each compound was assayed against T1, EGFR del746-750 T790M (Homo sapiens, UniProt P00533, DEL746-750/T790M) (assay: EGFR del746-750 T790M biochemical assay (Caliper mobility shift)). Settings: 5 μM ATP, 30 min, room temperature; apparent Ki (Morrison) converted by Cheng-Prusoff, Km of ATP 2.1 μM; read-out: EGFR(T790M/d746-750) Ki.
T1 construct: purchased Carna Biosciences 08-528
T1 sequence (P00533 with tags, fused parts or gaps DEL746-750/T790M limits assumed): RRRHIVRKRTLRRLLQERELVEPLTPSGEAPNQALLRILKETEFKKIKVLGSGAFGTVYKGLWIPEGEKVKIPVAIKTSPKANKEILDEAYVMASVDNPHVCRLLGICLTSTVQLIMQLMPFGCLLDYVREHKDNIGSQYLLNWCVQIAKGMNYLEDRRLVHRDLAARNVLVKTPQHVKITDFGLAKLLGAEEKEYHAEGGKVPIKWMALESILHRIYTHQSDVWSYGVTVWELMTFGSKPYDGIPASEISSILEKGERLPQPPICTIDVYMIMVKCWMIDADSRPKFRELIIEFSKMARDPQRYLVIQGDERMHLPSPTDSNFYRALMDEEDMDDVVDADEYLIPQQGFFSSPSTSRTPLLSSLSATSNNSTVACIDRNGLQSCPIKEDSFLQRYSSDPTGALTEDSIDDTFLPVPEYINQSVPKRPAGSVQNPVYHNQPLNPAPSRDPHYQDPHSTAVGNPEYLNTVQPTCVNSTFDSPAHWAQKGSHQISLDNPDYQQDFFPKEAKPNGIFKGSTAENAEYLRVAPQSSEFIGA

Structure (SMILES) | Ki [nM]
CCC(C)n1cc(C(=O)NC2CCOCC2)c2cnc(Nc3ccnc(N4CCC(O)C(C)(C)C4)n3)cc21 (mixture of isomers) [Example 384, 1-(sec-butyl)-6-((2-(4-hydroxy-3,3-dimethylpiperidin-1-yl)pyrimidin-4-yl)amino)-N-(tetrahydro-2H-pyran-4-yl)-1H-pyrrolo[3,2-c]pyridine-3-carboxamide] | 5.39
CCC(C)n1cc(C(=O)NC2CCN(C3COC3)CC2)c2cnc(Nc3ccnc(N4CC[C@H](O)[C@H](F)C4)n3)cc21 (mixture of isomers) [Example 389, 1-(sec-butyl)-6-((2-((3R,4S)-3-fluoro-4-hydroxypiperidin-1-yl)pyrimidin-4-yl)amino)-N-(1-(oxetan-3-yl)piperidin-4-yl)-1H-pyrrolo[3,2-c]pyridine-3-carboxamide] | 4.03
CCC(C)n1cc(C(=O)N[C@H]2CCOC[C@H]2F)c2cnc(Nc3ccnc(N4CC[C@@H](O)[C@@H](F)C4)n3)cc21 (mixture of isomers) [Example 637, 1-(sec-butyl)-6-((2-((3S,4R)-3-fluoro-4-hydroxypiperidin-1-yl)pyrimidin-4-yl)amino)-N-((3SR, 4SR)-3-fluorotetrahydro-2H-pyran-4-yl)-1H-pyrrolo[3,2-c]pyridine-3-carboxamide] | 4.01
CCC(C)n1cc(N2CCCC2=O)c2cnc(Nc3ccnc(N4CC[C@@H](O)[C@@H](F)C4)n3)cc21 (mixture of isomers) [Example 641, 1-(1-(sec-butyl)-6-((2-((3S,4R)-3-fluoro-4-hydroxypiperidin-1-yl)pyrimidin-4-yl)amino)-1H-pyrrolo[3,2-c]pyridin-3-yl)pyrrolidin-2-one] | 4.02
COC1CCN(c2nccc(Nc3cc4c(cn3)nc([C@@H](C)O)n4[C@H](C)C(F)(F)F)n2)CC1F (mixture of isomers) [Example 297, (R)-1-[6-[2-(cis-3-Fluoro-4-methoxypiperidin-1-yl)pyrimidin-4-ylamino]-1-((R)-2,2,2-trifluoro-1-methylethyl)-1H-imidazo[4,5-c]pyridin-2-yl]ethanol] | 40
CCC(C)n1cc(C(=O)NC2CCN(C3COC3)CC2)c2cnc(Nc3ccnc(-c4cnn(S(=O)(=O)C5CC5)c4)n3)cc21 (racemic) [Example 371, (±)-1-(sec-butyl)-6-((2-(1-(cyclopropylsulfonyl)-1H-pyrazol-4-yl)pyrimidin-4-yl)amino-N-(1-(oxetan-3-yl)piperidin-4-yl)-1H-pyrrolo[3,2-c]pyridine-3-carboxamide] | 1.16
CC(C)n1cc(C(=O)N[C@@H]2CCN(C3COC3)C[C@@H]2F)c2cnc(Nc3ccnc(-c4cnn(S(=O)(=O)C5CC5)c4)n3)cc21 (racemic) [Example 372, (±)-6-((2-(1-(cyclopropylsulfonyl)-1H-pyrazol-4-yl)pyrimidin-4-yl)amino)-N-((cis)-3-fluoro-1-(oxetan-3-yl)piperidin-4-yl)-1-isopropyl-1H-pyrrolo[3,2-c]pyridine-3-carboxamide] | 1.08
CC(C)n1cc(C(=O)NC2CCOCC2)c2cnc(Nc3ccnc(N4CCC(O)C(C)(C)C4)n3)cc21 (racemic) [Example 385, (±)-6-((2-(4-hydroxy-3,3-dimethylpiperidin-1-yl)pyrimidin-4-yl)amino)-l-isopropyl-N-(tetrahydro-2H-pyran-4-yl)-1H-pyrrolo[3,2-c] pyridine-3-carboxamide] | 6.47
Cc1nc2cnc(Nc3ccnc(N4CC[C@H](O)[C@H](F)C4)n3)cc2n1C(C)C (racemic) [Example 505, (±)-3-Fluoro-1-(4-((1-isopropyl-2-methyl-1H-imidazo [4,5-c]pyridin-6-yl)amino)pyrimidin-2-yl)piperidin-4-ol] | 42.8
Cc1nc2cnc(Nc3ccnc(N4CCC(O)C(F)(F)C4)n3)cc2n1C(C)C (racemic) [Example 507, (±)-3,3-Difluoro-1-(4-((1-isopropyl-2-methyl-1H-imidazo[4,5-c]pyridin-6-yl)amino)pyrimidin-2-yl)piperidin-4-ol] | 21.6
CO[C@@H]1CCN(c2nccc(Nc3cc4c(cn3)nc(C)n4C(C)C)n2)C[C@H]1O (racemic) [Example 508, (±)-1-(4-((1-Isopropyl-2-methyl-1H-imidazo[4,5-c]pyridin-6-yl)amino)pyrimidin-2-yl)-4-methoxypiperidin-3-ol] | 359
CO[C@H]1CN(c2nccc(Nc3cc4c(cn3)nc(C)n4C(C)C)n2)CC[C@@H]1O (racemic) [Example 509, (±)-1-(4-((1-Isopropyl-2-methyl-1H-imidazo[4,5-c]pyridin-6-yl)amino)pyrimidin-2-yl)-3-methoxypiperidin-4-ol] | 348
CO[C@H]1CCN(c2nccc(Nc3cc4c(cn3)nc(C)n4C(C)C)n2)C[C@H]1F (racemic) [Example 524, (±)-[2-((cis)-3-Fluoro-4-methoxypiperidin-1-yl)pyrimidin-4-yl]-(1-isopropyl-2-methyl-1H-imidazo[4,5-c]pyridin-6-yl)amine] | 50.9
CO[C@H]1CCN(c2nccc(Nc3cc4c(cn3)nc(C)n4C(C)C)n2)C[C@@H]1F (racemic) [Example 525, (±)-[2-((trans)-3-Fluoro-4-methoxypiperidin-1-yl)pyrimidin-4-yl]-(1-isopropyl-2-methyl-1H-imidazo[4,5-c]pyridin-6-yl)amine] | 222
CO[C@H]1CCN(c2nccc(Nc3cc4c(cn3)nc(CO)n4C(C)C)n2)C[C@H]1F (racemic) [Example 526, (±)-{6-[2-((cis)-3-Fluoro-4-methoxypiperidin-1-yl)pyrimidin-4-ylamino]-1-isopropyl-1H-imidazo[4,5-c]pyridin-2-yl}methanol] | 50.5
CO[C@H]1CCN(c2nccc(Nc3cc4c(cn3)nc(CO)n4C(C)C)n2)C[C@@H]1F (racemic) [Example 527, (±)-{6-[2-((trans)-3-Fluoro-4-methoxypiperidin-1-yl)pyrimidin-4-ylamino]-1-isopropyl-1H-imidazo[4,5-c]pyridin-2-yl}methanol] | 239
COC1CCN(c2nccc(Nc3cc4c(cn3)nc(C)n4C(C)C)n2)CC1(F)F (racemic) [Example 528, (±)-[2-(3,3-Difluoro-4-methoxypiperidin-1-yl)pyrimidin-4-yl](1-isopropyl-2-methyl-1H-imidazo[4,5-c]pyridin-6-yl)amine] | 43.3
CO[C@H]1CCN(c2nccc(Nc3cc4c(cn3)nc(C)n4C(C)C)n2)C[C@H]1F (racemic) [Example 607, [2-((3RS,4SR)-3-Fluoro-4-methoxypiperidin-1-yl)pyrimidin-4-yl]-(1-isopropyl-2-methyl-1H-imidazo[4,5-c]pyridin-6-yl)amine] | 41.1
CO[C@H]1CCN(c2nccc(Nc3cc4c(cn3)nc(C)n4C(C)C)n2)C[C@H]1F (racemic) [Example 608, [2-((3RS,4SR)-3-Fluoro-4-methoxypiperidin-1-yl)pyrimidin-4-yl]-(1-isopropyl-2-methyl-1H-imidazo[4,5-c]pyridin-6-yl)amine] | 48.3
Cc1nc2cnc(Nc3ccnc(N4CC[C@@H](S(C)(=O)=O)[C@H](F)C4)n3)cc2n1C(C)C (racemic) [Example 616, [2-(±)-(trans-3-Fluoro-4-methanesulfonylpiperidin-1-yl)pyrimidin-4-yl]-(1-isopropyl-2-methyl-1H-imidazo[4,5-c]pyridin-6-yl)amine] | 483
